Measurements reported in the NIST ThermoML archive (doi:10.1016/j.jct.2013.06.018).
Numbers after ± are expanded uncertainties.

Assay: excess molar enthalpy (molar enthalpy of mixing); xn = mol fraction of the nth substance listed
Conditions: 298.15 K, 101 kPa, Liquid, Calvet calorimetry

With `CCCCCCC` [heptane] + CCCO the excess molar enthalpy (x2 = 0.0699) was 0.102 ± 0.00215 kcal/mol, the excess molar enthalpy (x2 = 0.1182) was 0.125 ± 0.00263 kcal/mol and the excess molar enthalpy (x2 = 0.2088) was 0.148 ± 0.00311 kcal/mol. It also gave an excess molar enthalpy (x2 = 0.3839) of 0.158 ± 0.00335 kcal/mol, an excess molar enthalpy (x2 = 0.4743) of 0.152 ± 0.00335 kcal/mol and an excess molar enthalpy (x2 = 0.5332) of 0.142 ± 0.00311 kcal/mol. For the same compound, the excess molar enthalpy (x2 = 0.6744) was 0.115 ± 0.00239 kcal/mol, the excess molar enthalpy (x2 = 0.7196) was 0.103 ± 0.00215 kcal/mol and the excess molar enthalpy (x2 = 0.7698) was 0.0906 ± 0.00191 kcal/mol. For the same compound, the excess molar enthalpy (x2 = 0.7701) was 0.0884 ± 0.00191 kcal/mol, the excess molar enthalpy (x2 = 0.8193) was 0.0719 ± 0.00167 kcal/mol and the excess molar enthalpy (x2 = 0.8566) was 0.0605 ± 0.00143 kcal/mol. For the same compound, the excess molar enthalpy (x2 = 0.8909) was 0.0483 ± 0.0012 kcal/mol, the excess molar enthalpy (x2 = 0.8974) was 0.0464 ± 0.000956 kcal/mol and the excess molar enthalpy (x2 = 0.9343) was 0.0308 ± 0.000717 kcal/mol. It also gave an excess molar enthalpy (x2 = 0.9675) of 0.016 ± 0.000478 kcal/mol.
